From US6638928B1, “Treatment of irritable bowel syndrome and nonulcer dyspepsia with substituted 2,3-benzodiazepines” (Vela Pharmaceuticals, Inc., priority 2002, dated 2003)

Legend:
[1] = system: colonic propulsive motility; test: Glass bead test of colonic propulsive motility in mice; format: in vivo, mouse; details: 32 mg/kg IP; for Expulsion Time Mean ± SEM: 3 mm glass bead inserted 30 minutes after dosing, cut-off time 30 minutes, 10 per group; for Expulsion Time Mean ± SEM / inhibition at 32 mg/kg: female Swiss Webster mice; for inhibition at 32 mg/kg: Mus musculus, inhibition of bead expulsion vs vehicle; for inhibition of colonic propulsion (in words): summary of Table 1 data, mice
Description: This model is predictive of agents that may be used to treat the alterations in propulsion of intestinal contents that occur in individuals diagnosed with IBS. The model is very sensitive to test compounds producing inhibitory effects on propulsive motor activity, but is not sensitive to test articles increasing colonic propulsive motility. The model provides a direct measure of colonic propulsion. Thus, a test compound that slows the rate at which a glass bead is expelled, is predicted to have utility in the treatment of IBS,
This test is also used to evaluate test articles with potential to produce constipation, antidiarrheal activity, or have selective visceral anti-nociceptive activity in addition to being used as an animal model for irritable bowel syndrome.
For the present example, seventy test animals (female, 6 week old Swiss Webster mice, 18-30 g) were divided into 7 groups of 10 animals each for administration of six test compounds and vehicle alone as a control.
Each animal was dosed (IP) with either a compound of formula I, one of two related 2,3-benzodiazepines or vehicle alone. Thirty minutes after dosing, a 3 mm glass bead was inserted through the anus to a depth of 2 cm into the distal colon using a glass rod. […] Any test animal that had not expelled the bead within a cut-off time of 30 minutes was sacrificed and the position of the bead in the lumen of the colon was verified.
Such observations included gross evaluation of skin and fur, eyes and mucous membranes, respiratory, circulatory, autonomic and central nervous system, somatomotor activity and behavioral patterns. Particular attention was directed to observation of tremors, convulsions, salivation, diarrhea, sleep and coma. No signs of gross toxicity were observed. Mean and standard error of the mean were calculated for the expulsion times for each group.

peripheral BZ receptors = peripheral BZ receptors (Homo sapiens, UniProt P30536); details: cited from earlier work
central BZ receptors = details: cited from earlier work
aggression in mice = details: cited from earlier work
muricide in rats = details: cited from earlier work
[2] = system: anti-noradrenergic effects; details: cited from earlier work
narcosis in mice = details: cited from earlier work

Sequence of peripheral BZ receptors (P30536 whole entry): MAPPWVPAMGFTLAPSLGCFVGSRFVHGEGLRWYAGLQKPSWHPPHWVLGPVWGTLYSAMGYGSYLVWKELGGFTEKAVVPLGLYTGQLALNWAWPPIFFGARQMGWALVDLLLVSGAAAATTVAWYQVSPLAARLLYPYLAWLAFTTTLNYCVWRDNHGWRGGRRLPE

SMILES	Expulsion Time Mean ± SEM [1]	inhibition at 32 mg/kg [1] [%]	inhibition of colonic propulsion (in words) [1]	binding to peripheral BZ receptors (peripheral BZ receptors)	interaction with central BZ receptors (central BZ receptors)	inhibition of aggression (aggression in mice) [%]	inhibition of muricide (muricide in rats) [%]	anti-noradrenergic effects [2]	narcosis-potentiating activity (narcosis in mice)
CCC1C(C)=NN=C(c2ccc(OC)c(OC)c2)c2cc(O)c(OC)cc21 (racemic) [Compound 2, 1-(3,4-dimethoxyphenyl)-4-methyl-5-ethyl-7-methoxy-8-hydroxy-5H-2,3-benzodiazepine]	17.2 ± 3.5	23	–	–	–	–	–	–	–
CCC1C(C)=NN=C(c2ccc(OC)c(O)c2)c2cc(OC)c(OC)cc21 (racemic) [Compound 4, 1-(3-hydroxy-4-methoxyphenyl)-4-methyl-5-ethyl-7,8-dimethoxy-5H-2,3-benzodiazepine]	20.3 ± 3.5	42	substantial inhibition of colonic propulsion	–	–	–	–	–	–
CCC1C(C)=NN=C(c2ccc(OC)c(OC)c2)c2cc(OC)c(OC)cc21 (racemic) [tofisopam, 1-(3,4-dimethoxyphenyl)-4-methyl-5-ethyl-7,8-dimethoxy-5H-2,3-benzodiazepine]	–	–	–	binds only weakly	does not interact	–	–	–	–
CCC1C(C)=NN=C(c2ccc(OC)c(OC)c2)c2cc(OC)c(O)cc21 (centres unmarked) [Compound 1, 1-(3,4-dimethoxyphenyl)-4-methyl-5-ethyl-7-hydroxy-8-methoxy-5H-2,3-benzodiazepine]	6.9 ± 3.7	22	–	–	–	0	20	no effect	–
CCC1C(C)=NN=C(c2ccc(O)c(OC)c2)c2cc(OC)c(OC)cc21 (centres unmarked) [Compound 3, 1-(3-methoxy-4-hydroxyphenyl)-4-methyl-5-ethyl-7,8-dimethoxy-5H-2,3-benzodiazepine]	20.0 ± 3.1	40	substantial inhibition of colonic propulsion	–	–	0	0	measurable activity	narcosis-potentiating activity
CCC1C(C)=NN=C(c2ccc(O)c(OC)c2)c2cc(OC)c(O)cc21 (centres unmarked) [Compound 5, 1-(3-methoxy-4-hydroxyphenyl)-4-methyl-5-ethyl-7-hydroxy-8-methoxy-5H-2,3-benzodiazepine, reference compound]	12.0 ± 3.2	0	–	–	–	28.6	20	measurable activity	–
CCC1C(C)=NN=C(c2ccc(OC)c(O)c2)c2cc(OC)c(O)cc21 (centres unmarked) [Compound 6, 1-(3-hydroxy-4-methoxyphenyl)-4-methyl-5-ethyl-7-hydroxy-8-methoxy-5H-2,3-benzodiazepine, reference compound]	10.7 ± 3.4	0	–	–	–	–	–	–	–
